Our source for the IC50 and Ki values is ChEMBL document CHEMBL1909046, “DrugMatrix in vitro pharmacology data”.

Structures are written as SMILES.

The nature of data set [1]: DRUGMATRIX: beta-Lactamase enzyme inhibition (substrate: Nitrocefin). Details: species or system Bacillus cereus. The note with it: Not Active = under 50% inhibition at 10 µM.
For a further data set, the target named is Substance-P receptor (Homo sapiens, UniProt P25103). Format: cell membranes, Membrane. Particulars: cho. Further: in other assays of this panel Not Active means under 50% inhibition at 10 µM.
The target of data set [2] is Vascular endothelial growth factor receptor 1 (Homo sapiens, UniProt P17948). Nature of the data set: biochemical. Format: cell-based, HUVEC. Further: in other assays of this panel Not Active means under 50% inhibition at 10 µM.
A further data set deals with Melanocortin receptor 5 (Homo sapiens, UniProt P33032). Format: cell membranes, HEK293, Membrane. The note with it: hek293.
In data set [3] the target is Mitogen-activated protein kinase 3 (Homo sapiens, UniProt P27361). In words: DRUGMATRIX: Protein Serine/Threonine Kinase, ERK1 enzyme inhibition (substrate: Myelin Basic Protein). Particulars: Not Active = under 50% inhibition at 10 µM. Details: species or system Escherichia coli.
Data set [4] concerns the target T1, Receptor-type tyrosine-protein phosphatase C (Homo sapiens, UniProt P08575).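 Further: inhibition of CD45 enzyme activity measured using DiFMUP as substrate; in other assays of this panel Not Active means under 50% inhibition at 10 µM.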
T1 sequence (P08575 whole entry): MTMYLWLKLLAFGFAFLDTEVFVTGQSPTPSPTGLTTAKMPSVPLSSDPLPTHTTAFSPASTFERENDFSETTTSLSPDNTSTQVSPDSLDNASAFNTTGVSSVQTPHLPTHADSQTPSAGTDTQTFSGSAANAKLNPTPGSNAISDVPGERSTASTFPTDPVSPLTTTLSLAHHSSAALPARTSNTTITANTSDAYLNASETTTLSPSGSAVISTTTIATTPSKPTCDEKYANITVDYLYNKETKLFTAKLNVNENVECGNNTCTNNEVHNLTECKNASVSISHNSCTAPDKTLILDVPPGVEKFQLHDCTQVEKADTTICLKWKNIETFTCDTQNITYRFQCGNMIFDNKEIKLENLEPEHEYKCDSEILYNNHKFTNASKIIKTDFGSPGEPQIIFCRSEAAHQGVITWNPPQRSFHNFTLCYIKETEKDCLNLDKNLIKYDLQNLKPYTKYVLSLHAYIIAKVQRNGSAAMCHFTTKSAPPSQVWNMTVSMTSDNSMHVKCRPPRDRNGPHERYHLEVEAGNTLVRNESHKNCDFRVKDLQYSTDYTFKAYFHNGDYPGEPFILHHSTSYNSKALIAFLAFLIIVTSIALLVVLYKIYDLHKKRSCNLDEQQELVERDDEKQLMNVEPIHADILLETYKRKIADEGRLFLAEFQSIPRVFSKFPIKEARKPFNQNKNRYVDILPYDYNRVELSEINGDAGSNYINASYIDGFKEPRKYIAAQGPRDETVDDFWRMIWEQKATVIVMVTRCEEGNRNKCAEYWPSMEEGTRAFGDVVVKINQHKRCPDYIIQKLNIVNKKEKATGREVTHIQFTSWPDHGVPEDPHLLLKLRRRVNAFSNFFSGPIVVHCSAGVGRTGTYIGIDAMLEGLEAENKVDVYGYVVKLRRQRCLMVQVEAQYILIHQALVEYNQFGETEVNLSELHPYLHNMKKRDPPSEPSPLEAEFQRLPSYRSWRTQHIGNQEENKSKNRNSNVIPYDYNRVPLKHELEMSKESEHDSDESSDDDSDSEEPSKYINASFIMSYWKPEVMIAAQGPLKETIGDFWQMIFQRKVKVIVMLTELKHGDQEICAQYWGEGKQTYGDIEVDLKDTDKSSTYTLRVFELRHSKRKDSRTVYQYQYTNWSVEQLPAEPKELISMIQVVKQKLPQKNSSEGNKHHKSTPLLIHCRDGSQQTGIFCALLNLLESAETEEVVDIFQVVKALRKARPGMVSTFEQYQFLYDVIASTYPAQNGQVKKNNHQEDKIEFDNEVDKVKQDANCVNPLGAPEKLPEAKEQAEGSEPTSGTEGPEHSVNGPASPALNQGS
On the set-up: species or system Escherichia coli.

The target of the next data set is T2, Cytochrome P450 2A6 (Homo sapiens, UniProt P11509). Further: in other assays of this panel Not Active means under 50% inhibition at 10 µM.
T2 sequence (P11509 whole entry): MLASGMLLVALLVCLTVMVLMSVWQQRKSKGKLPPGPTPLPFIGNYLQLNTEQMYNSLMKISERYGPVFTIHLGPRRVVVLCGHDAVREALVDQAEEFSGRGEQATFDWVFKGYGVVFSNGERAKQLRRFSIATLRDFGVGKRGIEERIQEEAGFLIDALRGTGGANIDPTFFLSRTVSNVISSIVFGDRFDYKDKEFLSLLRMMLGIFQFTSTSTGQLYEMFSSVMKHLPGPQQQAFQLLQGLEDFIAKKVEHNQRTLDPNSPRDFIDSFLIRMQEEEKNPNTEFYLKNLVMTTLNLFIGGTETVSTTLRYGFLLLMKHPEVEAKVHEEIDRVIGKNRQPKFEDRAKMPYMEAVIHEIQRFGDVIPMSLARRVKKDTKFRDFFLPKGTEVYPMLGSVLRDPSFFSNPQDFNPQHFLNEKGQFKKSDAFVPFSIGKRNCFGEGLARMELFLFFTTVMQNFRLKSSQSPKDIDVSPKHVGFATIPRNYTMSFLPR
Particulars: bti-tn-5b1-4.

In the next data set the target is T3, Glucocorticoid receptor (Homo sapiens, UniProt P04150). Further: in other assays of this panel Not Active means under 50% inhibition at 10 µM.
T3 sequence (P04150 whole entry): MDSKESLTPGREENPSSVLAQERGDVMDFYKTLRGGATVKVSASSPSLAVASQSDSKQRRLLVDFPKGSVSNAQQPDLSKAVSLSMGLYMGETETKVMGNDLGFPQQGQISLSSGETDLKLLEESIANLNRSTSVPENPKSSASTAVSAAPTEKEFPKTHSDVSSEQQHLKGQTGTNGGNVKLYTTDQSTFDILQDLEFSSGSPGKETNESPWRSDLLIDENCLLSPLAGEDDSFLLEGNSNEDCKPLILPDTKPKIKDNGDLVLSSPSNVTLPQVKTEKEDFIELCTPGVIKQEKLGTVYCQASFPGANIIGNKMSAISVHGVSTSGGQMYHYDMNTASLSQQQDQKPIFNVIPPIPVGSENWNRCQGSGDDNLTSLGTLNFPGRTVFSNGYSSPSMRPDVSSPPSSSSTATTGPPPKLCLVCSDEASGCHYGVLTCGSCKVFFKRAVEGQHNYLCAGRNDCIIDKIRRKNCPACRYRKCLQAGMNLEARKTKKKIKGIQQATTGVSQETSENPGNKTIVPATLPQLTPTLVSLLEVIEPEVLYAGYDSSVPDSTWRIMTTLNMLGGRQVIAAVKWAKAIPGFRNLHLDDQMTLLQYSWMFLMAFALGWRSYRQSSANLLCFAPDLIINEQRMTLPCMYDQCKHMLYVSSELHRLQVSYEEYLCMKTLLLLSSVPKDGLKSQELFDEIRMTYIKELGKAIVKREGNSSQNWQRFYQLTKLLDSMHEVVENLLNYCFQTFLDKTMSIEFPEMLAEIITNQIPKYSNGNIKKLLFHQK
The note with it: hela s3.

Chain of Vascular endothelial growth factor receptor 1 (P17948 whole entry): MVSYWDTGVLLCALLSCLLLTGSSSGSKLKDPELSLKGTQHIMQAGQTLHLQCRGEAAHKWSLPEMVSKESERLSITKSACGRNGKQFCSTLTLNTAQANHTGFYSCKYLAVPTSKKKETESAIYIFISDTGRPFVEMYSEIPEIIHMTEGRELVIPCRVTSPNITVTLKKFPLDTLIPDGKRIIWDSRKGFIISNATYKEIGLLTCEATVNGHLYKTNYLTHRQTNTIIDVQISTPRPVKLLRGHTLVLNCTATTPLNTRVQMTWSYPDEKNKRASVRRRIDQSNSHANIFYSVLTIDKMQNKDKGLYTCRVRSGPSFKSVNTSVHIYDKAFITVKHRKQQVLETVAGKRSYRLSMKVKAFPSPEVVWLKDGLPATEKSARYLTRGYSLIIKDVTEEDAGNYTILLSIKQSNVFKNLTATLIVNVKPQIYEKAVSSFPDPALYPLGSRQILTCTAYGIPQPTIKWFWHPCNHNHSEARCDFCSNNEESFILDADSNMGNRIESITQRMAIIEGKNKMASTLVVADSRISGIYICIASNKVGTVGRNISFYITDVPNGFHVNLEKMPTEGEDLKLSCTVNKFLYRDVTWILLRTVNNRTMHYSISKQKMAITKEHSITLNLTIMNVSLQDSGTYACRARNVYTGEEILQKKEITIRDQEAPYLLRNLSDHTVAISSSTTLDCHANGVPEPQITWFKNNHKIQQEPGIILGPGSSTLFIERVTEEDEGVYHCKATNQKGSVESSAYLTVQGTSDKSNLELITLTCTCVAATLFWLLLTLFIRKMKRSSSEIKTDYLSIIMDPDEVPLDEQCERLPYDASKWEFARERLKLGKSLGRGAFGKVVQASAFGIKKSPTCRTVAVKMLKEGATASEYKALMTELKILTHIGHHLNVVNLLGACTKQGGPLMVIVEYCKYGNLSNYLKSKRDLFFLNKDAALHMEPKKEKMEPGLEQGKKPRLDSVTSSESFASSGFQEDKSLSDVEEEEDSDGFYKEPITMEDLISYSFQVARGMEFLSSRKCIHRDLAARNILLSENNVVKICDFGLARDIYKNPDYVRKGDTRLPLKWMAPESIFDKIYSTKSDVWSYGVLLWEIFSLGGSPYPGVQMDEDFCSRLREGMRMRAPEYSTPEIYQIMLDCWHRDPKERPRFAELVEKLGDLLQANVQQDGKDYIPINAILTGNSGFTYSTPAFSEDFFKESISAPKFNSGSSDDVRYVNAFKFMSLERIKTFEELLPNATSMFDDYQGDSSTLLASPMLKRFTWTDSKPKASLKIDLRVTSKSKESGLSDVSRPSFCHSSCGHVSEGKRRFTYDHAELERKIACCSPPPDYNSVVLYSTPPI
Chain of Melanocortin receptor 5 (P33032 whole entry): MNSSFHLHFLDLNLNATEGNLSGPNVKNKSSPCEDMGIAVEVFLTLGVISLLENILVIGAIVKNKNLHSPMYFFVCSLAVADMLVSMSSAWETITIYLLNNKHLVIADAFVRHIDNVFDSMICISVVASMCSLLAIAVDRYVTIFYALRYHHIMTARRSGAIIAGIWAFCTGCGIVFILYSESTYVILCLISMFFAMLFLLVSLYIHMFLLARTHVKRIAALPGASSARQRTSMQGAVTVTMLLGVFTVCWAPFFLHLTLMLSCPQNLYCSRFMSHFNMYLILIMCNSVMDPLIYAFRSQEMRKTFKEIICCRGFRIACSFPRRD
Chain of Mitogen-activated protein kinase 3 (P27361 whole entry): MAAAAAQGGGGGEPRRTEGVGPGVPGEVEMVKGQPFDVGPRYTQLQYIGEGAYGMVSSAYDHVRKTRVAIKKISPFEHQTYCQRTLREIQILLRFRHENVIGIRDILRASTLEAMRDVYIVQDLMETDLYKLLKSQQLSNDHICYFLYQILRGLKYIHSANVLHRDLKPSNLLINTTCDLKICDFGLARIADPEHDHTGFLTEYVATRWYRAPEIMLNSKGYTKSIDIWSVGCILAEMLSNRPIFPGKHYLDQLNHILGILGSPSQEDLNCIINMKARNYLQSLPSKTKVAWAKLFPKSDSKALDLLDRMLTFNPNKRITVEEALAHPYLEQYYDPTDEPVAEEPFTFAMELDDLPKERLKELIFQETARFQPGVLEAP
Chain of Substance-P receptor (P25103 whole entry): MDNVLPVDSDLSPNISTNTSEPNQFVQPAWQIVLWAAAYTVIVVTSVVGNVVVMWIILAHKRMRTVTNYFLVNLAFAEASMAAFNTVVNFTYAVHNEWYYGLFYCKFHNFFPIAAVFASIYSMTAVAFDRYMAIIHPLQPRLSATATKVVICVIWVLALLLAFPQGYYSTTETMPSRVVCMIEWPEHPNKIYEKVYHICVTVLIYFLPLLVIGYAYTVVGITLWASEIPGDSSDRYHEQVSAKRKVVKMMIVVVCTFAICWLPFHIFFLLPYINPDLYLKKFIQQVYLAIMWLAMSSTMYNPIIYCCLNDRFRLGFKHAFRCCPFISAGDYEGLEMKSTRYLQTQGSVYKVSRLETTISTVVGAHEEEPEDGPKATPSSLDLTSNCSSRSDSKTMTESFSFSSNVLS

With `Nn1nnc2ccccc21`, the IC50 result (in data set [1]; on Substance-P receptor; in data set [2] (huvec); against Melanocortin receptor 5; in data set [3]; in data set [4]) was “Not Active” in each case. The IC50 entry against Cytochrome P450 2A6 and on Glucocorticoid receptor was “Not Active” throughout. Besides, the Ki result (in data set [1]; at Cytochrome P450 2A6) was “Not Active” in each case.
Take `CC[C@]1(O)CC[C@H]2[C@@H]3CCC4=CCCC[C@@H]4[C@H]3CC[C@@]21C`: the IC50 entry (in data set [1]; on Substance-P receptor; in data set [2] (huvec); at Melanocortin receptor 5; in data set [3]; in data set [4]) was “Not Active” throughout. In addition, the IC50 entry against Cytochrome P450 2A6 and against Glucocorticoid receptor was “Not Active” in each case. Moreover, the Ki entry (in data set [1]; at Cytochrome P450 2A6) was “Not Active” throughout.
With `CCOC(=O)[C@H](CCc1ccccc1)N[C@@H](C)C(=O)N1Cc2ccccc2C[C@H]1C(=O)O`, the IC50 entry (in data set [1]; on Substance-P receptor; in data set [2] (huvec); against Melanocortin receptor 5; in data set [3]; in data set [4]) was “Not Active” in each case. The IC50 result on Cytochrome P450 2A6 and against Glucocorticoid receptor was “Not Active” each time. Moreover, the Ki entry (in data set [1]; on Cytochrome P450 2A6) was “Not Active” throughout.
On to `O=C(c1ccccc1Cl)N1CCC(Cc2ccccc2)CC1`, for which the IC50 entry (in data set [1]; on Substance-P receptor; in data set [2] (huvec); against Melanocortin receptor 5; in data set [3]; in data set [4]) was “Not Active” each time. In addition, the IC50 result against Cytochrome P450 2A6 and against Glucocorticoid receptor was “Not Active” throughout. Also, the Ki entry (in data set [1]; on Cytochrome P450 2A6) was “Not Active” in each case.
As to `CCOC(=O)[C@H](CCc1ccccc1)N[C@@H](C)C(=O)N1CCC[C@H]1C(=O)O`, the IC50 result (in data set [1]; against Substance-P receptor; in data set [2] (huvec); against Melanocortin receptor 5; in data set [3]; in data set [4]) was “Not Active” in each case. In addition, the IC50 entry at Cytochrome P450 2A6 and against Glucocorticoid receptor was “Not Active” in each case. The Ki result (in data set [1]; at Cytochrome P450 2A6) was “Not Active” throughout.
For `Clc1cc2c(cc1Cl)Oc1cc(Cl)c(Cl)cc1O2` [2,3,7,8-TETRACHLORODIBENZO-P-DIOXIN], the IC50 result in data set [1] is “Not Active”; against Substance-P receptor, “Not Active”; in data set [2] (read-out: IC50), 2.69 nM; at Melanocortin receptor 5, “Not Active”; in data set [3], “Not Active”; in data set [4], “Not Active”. For the same compound, the IC50 entry against Cytochrome P450 2A6 and against Glucocorticoid receptor was “Not Active” throughout. In addition, the Ki entry in data set [1] was “Not Active”; in data set [2] (read-out: Ki) it was 0.697 nM; on Cytochrome P450 2A6, “Not Active”.
On to `C=C1/C(=C\C=C2/CCC[C@]3(C)[C@@H]([C@H](C)CCCC(C)C)CC[C@@H]23)C[C@@H](O)C[C@@H]1O` [ALFACALCIDOL], for which the IC50 result (in data set [1]; against Substance-P receptor; in data set [2] (huvec); against Melanocortin receptor 5; in data set [3]; in data set [4]) was “Not Active” in each case. In addition, the IC50 result at Cytochrome P450 2A6 and against Glucocorticoid receptor was “Not Active” in each case. Also, the Ki result (in data set [1]; at Cytochrome P450 2A6) was “Not Active” throughout.
In the case of `CCCCCC[C@H]1C(=O)O[C@H](C)[C@H](NC(=O)c2cccc(NC=O)c2O)C(=O)O[C@@H](C)[C@@H]1OC(=O)CC(C)C` [ANTIMYCIN A], the IC50 result (in data set [1]; on Substance-P receptor; in data set [2] (huvec); against Melanocortin receptor 5; in data set [3]; in data set [4]) was “Not Active” throughout. Moreover, the IC50 entry on Cytochrome P450 2A6 and against Glucocorticoid receptor was “Not Active” in each case. The Ki entry (in data set [1]; on Cytochrome P450 2A6) was “Not Active” in each case.
Regarding `CO[C@H]1[C@@H](O)[C@H](N)[C@@H](O[C@H]2O[C@H]([C@H](C)N)CC[C@H]2N)[C@H](O)[C@@H]1N(C)C(=O)CN` [ASTROMICIN], the IC50 entry (in data set [1]; on Substance-P receptor; in data set [2] (huvec); at Melanocortin receptor 5; in data set [3]; in data set [4]) was “Not Active” each time. The IC50 result against Cytochrome P450 2A6 and at Glucocorticoid receptor was “Not Active” in each case. Further, the Ki result (in data set [1]; on Cytochrome P450 2A6) was “Not Active” each time.
Consider `CC(C)(C)c1ccc(S(=O)(=O)/C=C/C#N)cc1` [BAY-11-7085], for which the IC50 entry (in data set [1]; against Substance-P receptor; in data set [2] (huvec); on Melanocortin receptor 5; in data set [3]; in data set [4]) was “Not Active” in each case. Moreover, the IC50 entry on Cytochrome P450 2A6 and against Glucocorticoid receptor was “Not Active” in each case. Moreover, the Ki result (in data set [1]; at Cytochrome P450 2A6) was “Not Active” each time.
With `CCc1oc2ccccc2c1C(=O)c1cc(Br)c(O)c(Br)c1` [BENZBROMARONE], the IC50 entry (in data set [1]; on Substance-P receptor; in data set [2] (huvec); against Melanocortin receptor 5; in data set [3]; in data set [4]) was “Not Active” each time. The IC50 result on Cytochrome P450 2A6 and against Glucocorticoid receptor was “Not Active” in each case. Besides, the Ki result (in data set [1]; at Cytochrome P450 2A6) was “Not Active” in each case.
For the compound `C/C=C\c1ccc(O)c(OC)c1` [ISOEUGENOL], the IC50 result (in data set [1]; against Substance-P receptor; in data set [2] (huvec); against Melanocortin receptor 5; in data set [3]; in data set [4]) was “Not Active” in each case. Moreover, on Glucocorticoid receptor, the IC50 entry was “Not Active”. The Ki result in data set [1] is “Not Active”.

What is called IC50 is the point on the concentration scale where inhibition reaches its midpoint. By Ki is commonly meant a measure of affinity in units of concentration, obtained from inhibition or displacement.
